{"source": "patent US7582663B2", "about": "“Biaromatic compounds which activate PPARγ type receptors and cosmetic/pharmaceutical compositions comprised thereof” (Galderma Research & Development, priority 2002, dated 2009)"}
{"target": "T1, PPARγ (Homo sapiens, UniProt P37231)", "T1 sequence (P37231 238-505 limits assumed)": "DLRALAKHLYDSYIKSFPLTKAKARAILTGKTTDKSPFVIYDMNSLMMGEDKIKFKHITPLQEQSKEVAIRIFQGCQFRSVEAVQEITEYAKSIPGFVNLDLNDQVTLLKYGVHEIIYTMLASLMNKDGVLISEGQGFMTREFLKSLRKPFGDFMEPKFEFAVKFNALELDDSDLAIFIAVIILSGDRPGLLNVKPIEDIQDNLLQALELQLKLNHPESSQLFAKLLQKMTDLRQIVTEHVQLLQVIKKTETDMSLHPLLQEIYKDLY", "assay": "Crossed-curve PPAR transactivation test (PPARγ)", "type": "cell-based", "details": "HeLN cells stably transfected with Gal-hPPARγ and luciferase reporter; Schild regression against reference agonist; n.a. means not active; read-out: PPARγ Kd app", "method": "The activation of receptors with an agonist (activator) in HeLN cells leads to the expression of a reporter gene, luciferase, which, in the presence of a substrate, generates light. The modulation of the receptors is measured by quantifying the luminescence produced after incubating the cells in the presence of a reference agonist. The ligands displace the agonist from its site. The measurement of the activity is performed by quantifying the light produced. This measurement makes it possible to determine the modulatory activity of the compounds according to the invention by determining the constant that is the affinity of the molecule for the receptor. Since this value can fluctuate depending on the basal activity and the expression of the receptor, it is referred to as Kd apparent (KdApp in nM).\nThis is 88 measurement points for 1 product and 1 receptor. The remaining 8 wells are used for repeatability controls.\nMeasurements are also taken for total agonist controls with the same products.\nThe HeLN cell lines used are stable transfectants containing the plasmids ERE-βGlob-Luc-SV-Neo (reporter gene) and PPAR (α, δ, γ) Gal-hPPAR. These cells are inoculated into 96-well plates at a rate of 10 000 cells per well in 100 μl of DMEM medium without phenol red and supplemented with 10% of defatted calf serum. The plates are then incubated at 37° C. and 7% CO2 for 16 hours.\nThe various dilutions of the test products and of the reference ligand are added at a rate of 5 μl per well. The plates are then incubated for 18 hours at 37° C. and 7% CO2. The culture medium is removed by turning over and 100 μl of a 1:1 PBS/luciferine mixture are added to each well. After 5 minutes, the plates are read by the luminescence detector.", "units": {"Kd": "nM"}}
{"smiles": "CCCc1nnc(C(Cc2ccc(-c3cccc(CN(C)C(=O)c4ccc5cc(OCOCCOC)ccc5c4)c3)cc2)OCC)o1", "note": "(stereo not drawn) [Example 1, N-{4′-[2-ethoxy-2-(5-propyl[1,3,4]oxadiazol-2-yl)ethyl]biphenyl-3-ylmethyl}-N-methyl-6-(2-methoxyethoxymethoxy)naphthalene-2-carboxylamide]", "Kd": 250}
{"smiles": "CCCc1nnc(C(Cc2ccc(-c3cccc(CN(C)C(=O)c4ccc(Oc5ccccc5)cc4)c3)cc2)OCC)o1", "note": "(stereo not drawn) [Example 2, N-{4′-[2-ethoxy-2-(5-propyl[1,3,4]oxadiazol-2-yl)ethyl]biphenyl-3-ylmethyl}-N-methyl-4-phenoxybenzamide]", "Kd": 1000}
{"smiles": "CCCc1nnc(C(Cc2ccc(-c3cccc(CN(C)C(=O)c4ccc5cc(C(=O)OC)ccc5c4)c3)cc2)OCC)o1", "note": "(stereo not drawn) [Example 7, methyl 6-({4′-[2-ethoxy-2-(5-propyl[1,3,4]oxadiazol-2-yl)ethyl]biphenyl-3-ylmethyl}methylcarbamoyl)naphthalene-2-carboxylate]", "Kd": 250}
